From patent US7863324B2, “Chroman-derived compounds for the treatment of cancer” (Wisconsin Alumni Research Foundation, priority 2003, dated 2011)
Where “and” joins values, the source holds several entries; their conditions need not be identical. Identical values can stand only once. Entries after “also recorded” stand apart in the source; their conditions may differ. Like-named read-outs stand apart in the source and are kept apart here.

Columns and labels:
[1] = tested on: PSA secretion from LNCaP cells; experiment: Androgen-induced PSA secretion from LNCaP cells; assay type: cell-based, human; conditions: 48 h
Experimental: Determination of secreted PSA levels. LNCaP cells were cultured in 96 well plates (Costar) at 5,000 cells per well in DMEM/CSS 1 d before treatment. Forty-eight h after treatment, PSA levels in cell culture media were determined using the Tandem-MP PSA kit (Beckman Coulter, Inc.) according to manufacturer's instructions. PSA levels were normalized to DNA levels as determined using a Hoechst-based fluorescence DNA assay (23).

[2] = tested on: MMTV promoter activity in LNCaP cells; experiment: Androgen-stimulated MMTV promoter luciferase reporter assay, LNCaP; assay type: cell-based, human; conditions: for decrease of R1881-induced luciferase expression: 24 h
Experimental: (§1) Androgen-stimulated promoter reporter assay analysis. LNCaP and LAPC4 prostate carcinoma cell lines were cultured in 12-well cell culture plates (Costar) in DMEM/CSS 2 to 3 d before transfection. Androgen-induced trancriptional activation was determined using a reporter construct with an MMTV promoter that regulates the expression of luciferase (24). LNCaP and LAPC4 cells were transfected with the MMTV/luciferase plasmid using the Effectene Transfection Reagent (Qiagen Inc., Valencia, Calif.), according to the manufacturer's instructions. Twenty-four h after transfection, cells were treated with R1881 with or without test reagents at the specified concentrations. Cell extracts were acquired 24 to 48 h after treatment by removing medium, washing 1× with PBS, and obtaining extract with 200 μL of 1× Reporter Lysis Buffer (Promega, Madison, Wis.). Luciferase activity was determined as previously described (24).

LNCaP cells = experiment: Cell growth analysis (Hoechst DNA assay), LNCaP; assay type: cell-based, human; conditions: 4 d
Experimental: (§2) Cell growth and viability analyses. Five thousand LNCaP or LAPC4 cells were plated in each well of 96-well plates (Costar) in 100 μl of DMEM/CSS. Two to 3 d after plating, cells were treated by adding 100 μl of DMEM/CSS containing 2× the concentration of the specified treatment to each well. Four d after treatment, the relative cell number was estimated by the determining DNA concentration of each well using a Hoechst-based fluorescence DNA assay, as previously described (23). Growth analysis with DU145 cells was performed similar to those with LNCaP and LAPC4 cells except DUI45 cells were initially seeded at 500 cells per well. Cell viability was determined by trypan blue exclusion and quantified by light microscopic analysis using a hemacytometer.

[3] = tested on: MMTV promoter activity in LAPC4 cells; experiment: Androgen-stimulated MMTV promoter luciferase reporter assay, LAPC4; assay type: cell-based, human
Experimental: as §1

[4] = tested on: AR protein levels in LNCaP cells; experiment: Immunoblot analysis of AR protein levels; assay type: cell-based, human; conditions: 30 μM compound, 5 d, medium with 5% serum
Experimental: Immunoblot analysis of AR protein levels. LNCaP cells were plated at a density of 1×10^6 cells per 100 mm cell culture plate in 10 ml of DMEM/FBS and maintained in incubators at 37° C. in 5% CO2. […] Membranes were then incubated with a secondary horseradish peroxidase-conjugated anti-mouse antibody (Amersham Pharmacia Biotech, Piscataway, N.J.) and analyzed using the Enhanced Chemiluminescence Plus reagent (Amersham Pharmacia Biotech). Autoradiograms were prepared by exposing the blots to BioMax Light X-ray film (Eastman Kodak Co., Rochester, N.Y.) and developed using a CURIX 60 CP Processor (Agfa, Ridgefield Park, N.J.).

[5] = target: T1, androgen receptor in LNCaP cells (functional mutant AR) (Homo sapiens, UniProt P10275, T878A); experiment: Androgen receptor binding competition assay (3H-R1881) in LNCaP cells
T1 construct: host or cells: LNCaP
T1 sequence (P10275 1-920 T878A): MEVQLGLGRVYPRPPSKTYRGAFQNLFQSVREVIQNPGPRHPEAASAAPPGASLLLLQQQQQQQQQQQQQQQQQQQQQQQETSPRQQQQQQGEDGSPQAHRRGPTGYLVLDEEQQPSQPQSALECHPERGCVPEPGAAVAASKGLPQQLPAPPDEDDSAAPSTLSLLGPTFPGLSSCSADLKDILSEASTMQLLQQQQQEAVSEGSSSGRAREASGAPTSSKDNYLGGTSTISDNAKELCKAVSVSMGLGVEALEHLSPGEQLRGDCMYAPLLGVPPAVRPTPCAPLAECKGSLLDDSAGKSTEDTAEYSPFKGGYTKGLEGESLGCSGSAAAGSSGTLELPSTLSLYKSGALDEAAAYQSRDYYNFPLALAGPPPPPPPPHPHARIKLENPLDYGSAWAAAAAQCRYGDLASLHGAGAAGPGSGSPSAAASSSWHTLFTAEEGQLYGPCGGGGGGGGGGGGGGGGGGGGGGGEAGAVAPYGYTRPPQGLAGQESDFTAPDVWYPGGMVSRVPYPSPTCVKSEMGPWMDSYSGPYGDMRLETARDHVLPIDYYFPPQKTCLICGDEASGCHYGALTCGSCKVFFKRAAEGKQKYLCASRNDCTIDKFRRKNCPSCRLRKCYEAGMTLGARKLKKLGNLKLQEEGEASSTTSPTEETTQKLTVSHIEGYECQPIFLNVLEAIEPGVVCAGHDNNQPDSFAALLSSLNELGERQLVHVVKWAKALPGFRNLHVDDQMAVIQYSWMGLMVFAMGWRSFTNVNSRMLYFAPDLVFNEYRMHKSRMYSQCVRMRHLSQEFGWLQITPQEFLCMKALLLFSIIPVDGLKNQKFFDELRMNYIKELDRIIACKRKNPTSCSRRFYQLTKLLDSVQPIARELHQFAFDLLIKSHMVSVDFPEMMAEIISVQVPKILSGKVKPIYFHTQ
Experimental: (§3) Androgen receptor binding competition assay. An androgen receptor binding competition assay was performed as previously described (22). LNCaP or LAPC4 prostate carcinoma cells were plated in 12-well tissue culture dishes (Costar, Corning, N.Y.) at 3.0×10^5 cells per well in phenol-red free DMEM/CSS 3 d prior to analysis. For competitor analysis, DMEM/CSS was removed by aspiration and replaced with 1 mL of phenol-red free DMEM containing 1 nM ^3H-R1881, 1 μM triamcinolone acetonide, and competitor at the specified concentrations for 2 h at 37° C. in a 5% CO2 incubator. […] Cells were washed twice with 1 mL phenol red-free DMEM and placed in 8.0 mL of ScintiVerse II Scintillation Cocktail (Fisher Scientific, Pittsburgh, Pa.) for determination of radioactivity (i.e., dpm) using a Beckman LS 6000TA Liquid Scintillation System (Beckman Instruments Inc., Fullerton, Calif.).

[6] = tested on: androgen receptor protein levels in LNCaP cells; conditions: cited from earlier work
[7] = target: androgen receptor in LAPC4 cells (normal human AR) (Homo sapiens, UniProt P10275); experiment: Androgen receptor binding competition assay (3H-R1881) in LAPC4 cells
Experimental: as §3

Water solubility = assay type: physicochemical; conditions: cell culture studies
LAPC4 cells = experiment: Cell growth analysis (Hoechst DNA assay), LAPC4; assay type: cell-based, human; conditions: medium with 5% serum, 4 d
Experimental: as §2

[8] = Experimental: The oral toxicity of PMCol was determined in 6 month-old male FVB mice. A single high oral dose of 1000 mg/kg PMCol in sesame oil was administered to 4 mice by gavage. Four control mice received only sesame oil by gavage (vehicle control). […] In a second study, four 6 month-old male FVB mice received 200 mg/kg PMCol daily in sesame oil by gavage for 10 days. Three mice receiving only sesame oil (vehicle control) were used as controls. Body weights were determined daily and all mice were autopsied to examine gross organ changes on day 11.
[9] = general statement; cited from earlier work

Chain of androgen receptor in LAPC4 cells (normal human AR) (P10275 whole entry): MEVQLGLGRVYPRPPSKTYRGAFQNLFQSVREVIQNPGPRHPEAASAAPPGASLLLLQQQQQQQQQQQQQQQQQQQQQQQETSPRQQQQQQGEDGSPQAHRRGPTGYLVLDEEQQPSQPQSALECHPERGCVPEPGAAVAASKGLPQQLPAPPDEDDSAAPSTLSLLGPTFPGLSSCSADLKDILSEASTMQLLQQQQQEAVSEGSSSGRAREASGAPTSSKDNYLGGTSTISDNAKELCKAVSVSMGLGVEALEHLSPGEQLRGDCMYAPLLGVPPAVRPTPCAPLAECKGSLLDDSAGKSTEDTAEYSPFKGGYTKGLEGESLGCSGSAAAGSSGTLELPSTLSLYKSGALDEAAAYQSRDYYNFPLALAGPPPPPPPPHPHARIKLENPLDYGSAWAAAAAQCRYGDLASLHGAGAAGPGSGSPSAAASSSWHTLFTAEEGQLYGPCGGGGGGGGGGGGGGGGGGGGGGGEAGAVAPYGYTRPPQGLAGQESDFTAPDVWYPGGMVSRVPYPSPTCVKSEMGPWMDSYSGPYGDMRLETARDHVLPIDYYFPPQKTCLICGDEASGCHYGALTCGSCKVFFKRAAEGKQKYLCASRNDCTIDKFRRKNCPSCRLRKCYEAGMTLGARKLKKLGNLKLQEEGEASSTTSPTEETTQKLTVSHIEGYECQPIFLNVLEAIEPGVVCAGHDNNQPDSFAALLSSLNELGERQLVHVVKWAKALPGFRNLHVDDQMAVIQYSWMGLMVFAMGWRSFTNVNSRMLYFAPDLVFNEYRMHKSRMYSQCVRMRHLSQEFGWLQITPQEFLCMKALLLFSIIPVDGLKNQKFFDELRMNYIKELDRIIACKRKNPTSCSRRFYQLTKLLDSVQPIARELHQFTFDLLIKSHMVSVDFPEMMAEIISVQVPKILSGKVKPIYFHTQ

CC(O)(CS(=O)(=O)c1ccc(F)cc1)C(=O)Nc1ccc(C#N)c(C(F)(F)F)c1 (stereo not shown) [bicalutamide, reference compound]
decrease of R1881-stimulated PSA levels ([1]; 1.0 nM R1881, 1 μM compound): 43%
decrease of R1881-stimulated luciferase expression ([2]; 1.0 nM R1881, 1 μM compound): approximately 50%
R1881 concentration giving in control cells the growth response equivalent to that at 0.3 nM R1881 under treatment (LNCaP cells; LNCaP, 1 μM compound): 0.03 nM
decrease of R1881-stimulated luciferase expression ([3]; 1.0 nM R1881, 1 μM compound): approximately 50%

Cc1cc(C)c2c(c1C)OC(C)(C)CC2 [PMC, 2,2,5,7,8-pentamethylchroman, reference compound]
decrease of R1881-stimulated PSA levels ([1]; 1.0 nM R1881, 30 μM compound): 20%
AR protein levels [4]: did not result in altered AR protein levels; also recorded: not significantly altered
anti-androgenic activity in 3H-R1881 competition compared with PMCol ([5]; LNCaP cells, FIG. 2A): less anti-androgenic activity than PMCol
shift of R1881-stimulated biphasic LNCaP growth curve (LNCaP cells; 30 μM compound): more modest, but significant, shift to the right
R1881 concentration giving in control cells the growth response equivalent to that at 0.3 nM R1881 under treatment (LNCaP cells; LNCaP, 30 μM compound): 0.03 nM

COc1cc(/C=C/C(=O)CC(=O)/C=C/c2ccc(O)c(OC)c2)ccc1O [curcumin]
effect on AR protein levels [6]: down-regulate androgen receptor protein levels

Cc1c(C)c2c(c(C)c1O)CCC(C)(C)O2 [PMCol, 2,2,5,7,8-pentamethyl-6-chromanol]
inhibition of R1881-stimulated PSA release ([1]; 0.05 nM R1881, 30 μM compound): completely inhibited
decrease of R1881-stimulated PSA levels ([1]; 1.0 nM R1881, 30 μM compound): 80% and 81%
PSA release from LNCaP cells, compound alone ([1]; 30 μM, no R1881): not affected
inhibition at 30 µM ([1]; Homo sapiens, LNCaP, 0.05 nM R1881, 30 μM compound, read-out: inhibition of R1881-stimulated PSA release): 100%
AR protein levels [4]: did not affect androgen receptor protein levels; also recorded: did not result in altered AR protein levels; also recorded: not significantly altered
potency at competing for 3H-R1881 relative to bicalutamide (fold less potent) ([5]; LNCaP cells): approximately 10 fold
IC50 ([5]; LNCaP cells, against 1 nM 3H-R1881, estimated (FIG. 2A), read-out: IC50 for competition of 3H-R1881 binding): ~10 µM and 7.2 µM
IC50 ([5]; repeated studies, data not shown, read-out: IC50 values, repeated studies of competition for 3H-R1881 binding): 5 to 15 µM
decrease of R1881-induced luciferase expression ([2]; 1.0 nM R1881, 25 μM compound): 50%
decrease of R1881-induced luciferase expression ([2]; 1.0 nM R1881, 50 μM compound): 70%
MMTV promoter activity, compound alone ([2]; no R1881): no effect
LNCaP cell growth in presence of growth inhibitory R1881 (LNCaP cells; 1.0 nM R1881, 10 μM to 30 μM compound): significant stimulation
shift of R1881-stimulated biphasic LNCaP growth curve (LNCaP cells; 30 μM compound): shifted to the right
concentration significantly inhibiting R1881-stimulated LNCaP growth (LNCaP cells; LNCaP, 0.1 nM R1881): ≥ 10 µM
R1881 concentration giving in control cells the growth response equivalent to that at 0.3 nM R1881 under treatment (LNCaP cells; LNCaP, 30 μM compound): 0.03 nM
concentration at which LNCaP cell growth was decreased (LNCaP cells; LNCaP, FIG. 3B): ≥ 40 µM
growth modulatory (AR agonist) activity in androgen-deficient media (LNCaP cells; LNCaP, no R1881, 10 μM to 30 μM): no growth modulatory activity
decrease in 3H-R1881 binding ([7]; 30 μM compound): 75%
IC50 ([7]; against 1 nM R1881): ~10 µM
water solubility (Water solubility): sufficiently water soluble to permit studies in cell culture
concentration required to significantly reduce cell growth (LAPC4 cells): ≥ 60 µM
gross changes in organs at autopsy ([8]; 200 mg/kg daily by gavage for 10 days, autopsy day 11): No gross changes in organs
change in animal body mass ([8]; mouse, in vivo): no significant change
LD50 ([8]; mouse, in vivo, po): > 1000 mg/kg body weight
change in animal behavior or body mass ([8]; mouse, in vivo, po, 1000 mg/kg): No significant change

Cc1c(C)c2c(c(C)c1O)CC[C@@](C)(CCC[C@H](C)CCC[C@H](C)CCCC(C)C)O2 [vitamin E, α-tocopherol]
solubility in water [9]: practically insoluble in water

C[C@]1(O)CC[C@H]2[C@@H]3CCC4=CC(=O)CCC4=C3C=C[C@@]21C [R1881, methyltrienolone, reference compound]
increase in PSA levels ([1]; 0.05 nM R1881): 3.1 fold
increase in PSA levels ([1]; 1.0 nM R1881): 12 fold
increase in luciferase expression ([2]; 1.0 nM R1881, 24 h): 54 fold
increase in MMTV/LTR driven luciferase expression ([3]; 1.0 nM R1881): 20 fold
